In test [1] the target is Melanocyte-stimulating hormone receptor (Mus musculus, UniProt Q01727). As to the kind of experiment: Agonistic activity evaluated at melanocortin 1 receptor (MC1R) of mouse HEK293 cells. It is filed as functional, cell-based.
Test [2] deals with Melanocortin receptor 5 (Mus musculus) (UniProt P41149). Description: Percent stimulation at melanocortin 5 receptor (MC5R) of mouse HEK293 cells at a concentration of 100 uM. The format is cell-based.
Test [3] has as its target Melanocortin receptor 4 (Mus musculus) (UniProt P56450). Description: Percent stimulation at melanocortin 4 receptor (MC4R) of mouse HEK293 cells at a concentration of 100 uM. It is filed as cell-based.
In test [4] the target is Melanocortin receptor 3 (Mus musculus) (UniProt P33033). Description: Agonistic activity at melanocortin 3 receptor (MC3R) of mouse HEK293 cells at a concentration of 100 uM; NA=No activity. The format is functional, cell-based.
Melanocortin receptor 3 (Mus musculus), sequence (P33033 whole entry): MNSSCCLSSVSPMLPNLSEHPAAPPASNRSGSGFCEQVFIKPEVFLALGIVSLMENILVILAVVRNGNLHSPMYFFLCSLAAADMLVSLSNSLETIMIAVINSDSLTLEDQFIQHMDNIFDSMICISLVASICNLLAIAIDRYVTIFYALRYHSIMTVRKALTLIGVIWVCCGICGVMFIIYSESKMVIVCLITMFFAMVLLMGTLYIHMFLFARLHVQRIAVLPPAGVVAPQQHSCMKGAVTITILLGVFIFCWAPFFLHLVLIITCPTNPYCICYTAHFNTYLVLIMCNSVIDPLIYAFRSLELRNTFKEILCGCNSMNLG
In test [5] the target is Melanocortin receptor 4 (Mus musculus, UniProt P56450). As to the kind of experiment: Agonistic activity evaluated at melanocortin 4 receptor (MC4R) of mouse HEK293 cells. It is filed as functional, cell-based.
Melanocortin receptor 4, sequence (P56450 whole entry): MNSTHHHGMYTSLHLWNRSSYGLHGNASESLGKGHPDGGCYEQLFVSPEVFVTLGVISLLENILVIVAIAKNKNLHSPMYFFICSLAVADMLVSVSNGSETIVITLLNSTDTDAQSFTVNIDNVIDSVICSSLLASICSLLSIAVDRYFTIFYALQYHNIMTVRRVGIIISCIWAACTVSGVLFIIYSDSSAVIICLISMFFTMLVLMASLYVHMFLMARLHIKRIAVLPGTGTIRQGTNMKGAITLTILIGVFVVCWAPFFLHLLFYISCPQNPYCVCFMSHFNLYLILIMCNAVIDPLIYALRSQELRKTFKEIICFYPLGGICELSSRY
The target of test [6] is Melanocortin receptor 5 (Mus musculus, UniProt P41149). Description: Agonistic activity evaluated at melanocortin 5 receptor (MC5R) of mouse HEK293 cells. It is filed as functional, cell-based.
Melanocortin receptor 5, sequence (P41149 whole entry): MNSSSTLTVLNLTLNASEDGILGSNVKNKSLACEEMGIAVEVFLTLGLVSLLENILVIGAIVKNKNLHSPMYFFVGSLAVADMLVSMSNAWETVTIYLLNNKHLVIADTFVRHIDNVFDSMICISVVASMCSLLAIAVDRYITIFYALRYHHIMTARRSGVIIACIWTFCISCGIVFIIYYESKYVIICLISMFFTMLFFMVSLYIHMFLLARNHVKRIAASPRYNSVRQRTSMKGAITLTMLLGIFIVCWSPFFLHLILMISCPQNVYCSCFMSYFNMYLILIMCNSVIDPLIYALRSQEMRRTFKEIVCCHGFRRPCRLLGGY
The target in test [7] is Melanocortin receptor 3 (Mus musculus) (UniProt P33033). As to the kind of experiment: Percent stimulation at melanocortin 3 receptor (MC3R) of mouse HEK293 cells at a concentration of 100 uM. It is filed as cell-based.
Test [8] has as its target Melanocortin receptor 3 (Mus musculus, UniProt P33033). Description: Agonistic activity evaluated at melanocortin 3 receptor (MC3R) of mouse HEK293 cells. The format is functional, cell-based.
Test [9] concerns the target Melanocortin receptor 4 (Mus musculus) (UniProt P56450). As to the kind of experiment: Agonistic activity at melanocortin 4 receptor (MC4R) of mouse HEK293 cells at a concentration of 100 uM; NA=No activity. It is filed as functional, cell-based.

This passage reports EC50 and Stimulation results from ChEMBL document CHEMBL1145871, “Design and pharmacology of peptoids and peptide-peptoid hybrids based on the melanocortin agonists core tetrapeptide sequence” (Bioorg Med Chem Lett, 2003).

Activity calls are given as the source filed them. No cut-off for these calls is given here. Where a SMILES comes first, the peptide text is derived from it. [ ]: non-standard residue; d: D form. Gly(N(CH2)2(3-indolyl)) = O=C(O)CNCCc1c[nH]c2ccccc12; Gly(N-CH2CH2-imidazol-4-yl) = O=C(O)CNCCc1c[nH]cn1; N(1-naphthylmethyl)Gly = O=C(O)CNCc1cccc2ccccc12; Gly(N-(CH2)3-guanidino) = N=C(N)NCCCNCC(=O)O; NhArg = N=C(N)NCCCCNCC(=O)O; Nphe = O=C(O)CNCc1ccccc1; Nlys = NCCCCNCC(=O)O

What is called EC50 is the concentration at which the effect is half-maximal.

Melanocyte-stimulating hormone receptor, sequence (Q01727 whole entry): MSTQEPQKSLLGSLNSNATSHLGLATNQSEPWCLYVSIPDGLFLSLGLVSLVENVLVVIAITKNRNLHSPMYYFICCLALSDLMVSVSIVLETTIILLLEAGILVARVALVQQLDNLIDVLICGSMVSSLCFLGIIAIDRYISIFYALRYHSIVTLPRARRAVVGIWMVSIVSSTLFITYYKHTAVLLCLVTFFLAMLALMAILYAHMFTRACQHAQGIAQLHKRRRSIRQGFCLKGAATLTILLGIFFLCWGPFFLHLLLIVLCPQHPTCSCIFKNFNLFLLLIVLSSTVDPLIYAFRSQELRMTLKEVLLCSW
Melanocortin receptor 4 (Mus musculus), sequence (P56450 whole entry): as the sequence (P56450 whole entry) above
Melanocortin receptor 3, sequence (P33033 whole entry): as the sequence (P33033 whole entry) above
Melanocortin receptor 5 (Mus musculus), sequence (P41149 whole entry): as the sequence (P41149 whole entry) above

As to `CC(=O)N[C@@H](Cc1cnc[nH]1)C(=O)N(CC(=O)N[C@@H](CCCNC(=N)N)C(=O)N[C@@H](Cc1c[nH]c2ccccc12)C(N)=O)Cc1ccccc1`, in [1], the concentration for a half-maximal effect (EC50) is 48 µM.
With `CC(=O)N[C@@H](Cc1c[nH]cn1)C(=O)N(CC(=O)N[C@@H](CCCN=C(N)N)C(=O)N[C@@H](Cc1c[nH]c2ccccc12)C(N)=O)Cc1ccccc1`, the Stimulation in [2] came out at 40%; in [3], 20%. The Stimulation entry in [4] is “inactive”.
Consider `CC(=O)N[C@@H](Cc1c[nH]cn1)C(=O)N[C@@H](Cc1ccccc1)C(=O)N[C@@H](CCCN=C(N)N)C(=O)N(CCc1c[nH]c2ccccc12)CC(N)=O` (Ac-HFR[Gly(N(CH2)2(3-indolyl))]-NH2), for which the EC50 in test [5] was determined as 0.64 µM; in test [6], 0.056 µM; in test [1], 0.5 µM. Also, the Stimulation in test [7] was found to be 70%.
On to `CC(=O)N[C@@H](Cc1cnc[nH]1)C(=O)N[C@@H](Cc1ccccc1)C(=O)N(CCCNC(=N)N)CC(=O)N[C@@H](Cc1c[nH]c2ccccc12)C(N)=O` (Ac-HF[Gly(N-(CH2)3-guanidino)]W-NH2), for which the EC50 in test [5] came to 1.1 µM; in test [8], 9.2 µM; in test [6], 0.16 µM; in [1], 0.17 µM.
On to `CC(=O)N(CCc1cnc[nH]1)CC(=O)N[C@@H](Cc1ccccc1)C(=O)N[C@@H](CCCNC(=N)N)C(=O)N[C@@H](Cc1c[nH]c2ccccc12)C(N)=O` (Ac-[Gly(N-CH2CH2-imidazol-4-yl)]FRW-NH2), for which the half-maximal effective concentration (EC50) in test [5] amounted to 0.88 µM; in test [6], 0.53 µM; in test [1], 1.7 µM.
In test [7], `CC(=O)N(CCc1c[nH]cn1)CC(=O)N[C@@H](Cc1ccccc1)C(=O)N[C@@H](CCCN=C(N)N)C(=O)N[C@@H](Cc1c[nH]c2ccccc12)C(N)=O` (Ac-[Gly(N-CH2CH2-imidazol-4-yl)]FRW-NH2) yielded a Stimulation of 60%.
As for `CC(=O)N(CCc1c[nH]cn1)CC(=O)N(CC(=O)N(CCCN=C(N)N)CC(=O)N(CCc1c[nH]c2ccccc12)CC(N)=O)Cc1ccccc1` (Ac-[Gly(N-CH2CH2-imidazol-4-yl)][Nphe][Gly(N-(CH2)3-guanidino)][Gly(N(CH2)2(3-indolyl))]-NH2), the figures for the EC50 in [6] and in test [1] were 5.3 µM and 6.6 µM, respectively. Moreover, the results for the Stimulation in [3] and in [7] were 65% and 55%, respectively.
Regarding `CC(=O)N(CCc1c[nH]cn1)CC(=O)N(CC(=O)N(CCCCN)CC(=O)N(CCc1c[nH]c2ccccc12)CC(N)=O)Cc1ccccc1` (Ac-[Gly(N-CH2CH2-imidazol-4-yl)][Nphe][Nlys][Gly(N(CH2)2(3-indolyl))]-NH2), the EC50 in [5] was 27.2 µM; in [6], 7.38 µM; in test [1], 27 µM. The Stimulation in test [7] came to 75%.
Turning to `CC(=O)N(CC(=O)N[C@@H](Cc1ccccc1)C(=O)N[C@@H](CCCN=C(N)N)C(=O)N[C@@H](Cc1c[nH]c2ccccc12)C(N)=O)Cc1ccccc1` (Ac-[Nphe]FRW-NH2), the EC50 in test [5] amounted to 0.26 µM; in test [6] it was 0.36 µM; in [1], 0.78 µM. Further, the Stimulation in [7] worked out at 25%.
For the compound `CC(=O)N(CC(=O)N(CC(=O)N(CCCCN=C(N)N)CC(=O)N(CC(N)=O)Cc1cccc2ccccc12)Cc1ccccc1)Cc1ccccc1` (Ac-[Nphe][Nphe][NhArg][N(1-naphthylmethyl)Gly]-NH2), the Stimulation result in [9] is “inactive”. For the same compound, the figures for the EC50 in [6] and in [1] were 20 µM and 7.6 µM, respectively. The compound also had a Stimulation in [7] of 55%.
